Earlier results on two compounds are cited in US9034398B2, “Traditional Chinese drug comprising Danshen extracts and Sanqi extracts and use thereof” (TASLY Pharmaceutical Group Co., LTD., priority 2009, dated 2015).

One series deals with rat's liver. Conditions: previous researches, cited from earlier work.
Series [1] has as its system rat's mesenteric venule walls. As to conditions: prior researches; rat mesentery, I/R; cited from earlier work.

Regarding `CC(C)=CCC[C@](C)(O[C@@H]1O[C@H](CO)[C@@H](O)[C@H](O)[C@H]1O)[C@H]1CC[C@]2(C)[C@@H]1[C@H](O)C[C@@H]1[C@@]3(C)CC[C@H](O)C(C)(C)[C@@H]3[C@@H](O[C@@H]3O[C@H](CO)[C@@H](O)[C@H](O)[C@H]3O[C@@H]3OC[C@@H](O)[C@H](O)[C@H]3O)C[C@]12C` [Notoginsenoside R1], the “leukocytes adhered to rat's liver caused by I/R” value in the series on rat's liver is recorded as “can reduce”. Further, the “microcirculation disorder of the liver” value in the series on rat's liver (rat, I/R) is “can ameliorate”.
On to `O=C(O)C(O)Cc1ccc(O)c(O)c1` (centres unmarked) [Danshensu, (3,4-dihydroxyphenyl)lactic acid], for which, in series [1], the “adhesion between leucocytes and venule walls” value is “potential for inhibiting”; the “expression of leucocytes adhesion molecules CD11b/CD18” value is on record as “potential for inhibiting”; the “leakage of plasma albumin” value is reported as “potential for inhibiting”.
